Drawing on patent US20140018537A1, “GPR119 AGONIST” (NIPPON CHEMIPHAR CO., LTD., priority 2008, published 2014), this text covers melting point and EC50 for 14 compounds.

One data set has as its target T1, human GPR119 (Homo sapiens, UniProt Q8TDV5).
T1 construct: expressed in transfected cells
T1 sequence (Q8TDV5 1-335): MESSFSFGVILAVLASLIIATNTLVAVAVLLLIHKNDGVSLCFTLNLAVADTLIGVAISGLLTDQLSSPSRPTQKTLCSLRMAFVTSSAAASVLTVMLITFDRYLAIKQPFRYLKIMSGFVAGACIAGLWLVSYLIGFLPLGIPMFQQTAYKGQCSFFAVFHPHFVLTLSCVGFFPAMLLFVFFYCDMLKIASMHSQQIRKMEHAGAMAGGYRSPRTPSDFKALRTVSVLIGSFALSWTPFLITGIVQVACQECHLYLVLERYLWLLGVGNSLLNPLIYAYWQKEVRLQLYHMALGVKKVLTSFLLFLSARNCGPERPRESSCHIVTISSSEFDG
Nature of the data set: Intracellular cAMP increase in human GPR119 introduced cells (HitHunter cAMP XS+ Assay). The format is cell-based. Conditions: Table 17; method similar to Example 86; hGPR119 stable cells, intracellular cAMP. An excerpt:
The GPR119 agonist effect was studied by measuring the effect of an analyte on increase of intracellular amount of cAMP in human GPR119 introduced cells. The testing method is described below.
(1) Construction of the Stable Cell Line Expressing Human G Protein-Coupled-Receptor 119 (hGPR119) Human GPR119 gene (NM 178471) is purchased from American Type Culture Collection (ATCC No. 10807349). Hind III site-added forward side primer ([…]: sequence No. 1) and Apa I site-added reverse side primer ([…]: sequence No. 2) are designed. The target gene is amplyfied by a polymerase chain reaction (PCR) method using KOD-Plus-Ver. 2 (TOYOBO #KOD-211). PCR is conducted by repeating three steps consisting of the step of 98° C.-10 seconds, the step of 55° C.-30 seconds, and the step of 68° C.-1 minute and 10 seconds in 35 cycles. The amplified PCR product is inserted into pcDNA5/FRT/TO (Invitrogen #V6520-20) plasmid. Cells, which can constantly express the target gene with tetracycline, are constructed using Flp-In T-REx-systen (invitorogen).
(2) Measurement of Intracellular Cyclic Adenosine Monophosphate (cAMP)
The hGPR119 introduced cells prepared in (1) are plated on a 96-well plate using Dulbecco's Modified Eagle Medium containing heat-inactived 10% fetal bovine serum. After incubation of 24 hours, tetracyclin (invitrogen #Q10019) is added to the culture medium to induce hGPR119 gene expression. After further incubation of 24 hours, the cells are stimulated with 0.5 mM 3-ISOBUTYL-1-METHYLXANTHINE (Sigma #17018) phosphate buffer containing the analyte at 37° C. for 30 minutes. The amount of the intracellular cAMP is measured by using FLUOstar Optima (BMG LABTECH) according to the protocol of HitHunter™ cAMP XS+Assay (GE Healthcare #90007503) to give the agonist activity of the analyte to the GPR119 receptor.
(1) Construction of the Stable Cell Line Expressing Human G-Protein Coupled Receptor 119 (hGPR119) hGPR119 gene (NM 178471) was purchased from American Type Culture Collection (ATCC No. 10807349). The forward primer that was added a HindIII site ([…] (sequence number 1)), and the reverse primer that was added an ApaI site ([…] (sequence number 2)) were designed, the target gene was amplified by polymerase chain reaction (PCR) using a KOD-Plus-Ver.2 (TOYOBO #KOD-211). PCR was repeated 3 steps (98° C. for 10 sec, 55° C. for 30 sec, 68° C. for 1 min 15 sec) by 35 cycles. Amplified PCR product was inserted in pcDNA5/FRT/TO (Invitrogen #V6520-20), and the stable cell line that expresses target gene when induced with tetracycline was created using the Flp-In T-Rex system (Invitrogen).
(2) Measuring Method of Intracellular Cyclic Adenosine Monophosphate (cAMP) hGPR119 stable cells made by above-mentioned (1) were plated on 96 well plates in Dulbecco's Modified Eagle Medium containing 10% heat-inactivated FBS. After 24 hours, the hGPR119 expression was induced by adding medium containing tetracycline (Invitrogen #Q10019) and incubating for another 24 hours. Following incubation, cells were stimulated by 0.5 mM 3-ISOBUTYL-1-METHYLXANTHINE (Sigma #17018) phosphate buffered saline containing test compound for 30 minutes at 37° C. Agonist activity of test compound to the GPR119 receptor was estimated by measuring the intracellular cAMP concentration using a Fluostar optima plate reader (BMG LABTECH) according to the manufacturer's protocol of the HitHunter™ cAMP XS+Assay (GE Healthcare #90007503).
The examination was performed by the method similar to Example 86 (Pharmacological experiment 1)-(1), -(2).

What is called melting point is the temperature, or range, at which the solid turns liquid. As for `COc1cc(C2CCN(C(=O)OC(C)(C)C)CC2)cnc1COc1ccc(S(C)(=O)=O)cc1` [Example 67, tert-Butyl 4-[2-(4-methanesulfonylphenoxymethyl)-3-methoxypyridin-5-yl]piperidine-1-carboxylate], the melting point lay within 153 to 154 °C.
As for `CC(C)(C)OC(=O)N1CCC(c2ccc(COc3ccc(NS(C)(=O)=O)cc3)nc2)CC1` [Example 35, tert-Butyl 4-[2-(4-methanesulfonylaminophenoxymethyl)pyridin-5-yl]piperidine-1-carboxylate], the melting point lay within 171 to 173 °C.
As for `CCCCCc1cnc(N2CCC(c3ccc(COc4ccc(S(C)(=O)=O)cc4)nc3)CC2)nc1` [Example 50, 2-[4-[2-(4-Methanesulfonylphenoxymethyl)pyridin-5-yl]piperidin-1-yl]-5-pentylpyrimidine], the melting point was 154 to 157 °C.
In turn, `CC(C)(C)CC(=O)N1CCC(c2ccc(COc3ccc(S(C)(=O)=O)cc3)nc2)CC1` [Example 46, 1-[4-[2-(4-Methanesulfonylphenoxymethyl)pyridin-5-yl]piperidin-1-yl]-3,3-dimethylbutan-1-one] gave a melting point of 140 to 142 °C.
As to `CC(C)COC(=O)N1CCC(c2ccc(COc3ccc(S(C)(=O)=O)cc3)nc2)CC1` [Example 44, Isobutyl 4-[2-(4-methanesulfonylphenoxymethyl)pyridin-5-yl]piperidine-1-carboxylate], the melting point was in the range of 114 to 117 °C.
Take `CCCCCc1cnc(N2CCC(c3ccc(COc4ccc(-n5cnnn5)cc4)nc3)CC2)nc1` [Example 56, 5-Pentyl-2-[4-[2-[4-(tetrazol-1-yl)phenoxymethyl]pyridin-5-yl]piperidin-1-yl]pyrimidine]: the melting point is 174 to 176 °C.
As to `COc1cc(S(C)(=O)=O)ccc1OCc1ccc(C2CCN(C(=O)OC(C)(C)C)CC2)cn1` [Example 26, tert-Butyl 4-[2-(4-methanesulfonyl-2-methoxyphenoxymethyl)pyridin-5-yl]piperidine-1-carboxylate], the melting point lay in the range of 135 to 138 °C.
The compound `CCc1cnc(N2CCC(c3ccc(COc4ccc(C#N)c(F)c4)nc3)CC2)nc1` [Example 52, 2-[4-[2-(4-Cyano-3-fluorophenoxymethyl)pyridin-5-yl]piperidin-1-yl]-5-ethylpyrimidine] returned a melting point of 129 to 131 °C.
Same read-out and setting: the figure for `CC(C)(C)OC(=O)N1CCC(c2ccc(COc3ccc([N+](=O)[O-])cc3)nc2)CC1` [Example 33, tert-Butyl 4-[2-(4-nitrophenoxymethyl)pyridin-5-yl]-piperidine-1-carboxylate] is 149 to 150 °C; for `CC(C)(C)OC(=O)N1CC=C(c2cnc(COc3ccc(S(C)(=O)=O)cc3)cc2Cl)CC1` [Example 76, tert-Butyl 4-[4-chloro-2-(4-methanesulfonylphenoxymethyl)pyridin-5-yl]-3,6-dihydro-2H-pyridine-1-carboxylate] it is 148 to 150 °C; for `CC(C)(C)OC(=O)N1CCC(c2ccc(COc3cccc([N+](=O)[O-])c3)nc2)CC1` [Example 30, tert-Butyl 4-[2-(3-nitrophenoxymethyl)pyridin-5-yl]piperidine-1-carboxylate] it is 94 to 96 °C.
For orientation: EC50 means the concentration at which the effect is half-maximal. Lower therefore signals an effect from little substance. `CC(C)(C)OC(=O)N1CCC(c2ccc(CSc3ccc(S(C)(=O)=O)cc3)nc2)CC1` [Example 84, tert-Butyl 4-[2-(4-methanesulfonylphenylthiomethyl)pyridin-5-yl]piperidine-1-carboxylate] displayed an EC50 on human GPR119 of 128 nM.
For the compound `Cc1cc(C2CCN(C(=O)OC(C)(C)C)CC2)cnc1COc1ccc(S(C)(=O)=O)cc1Br` [Example 81, tert-Butyl 4-[2-(2-bromo-4-methanesulfonylphenoxymethyl)-3-methylpyridin-5-yl]piperidine-1-carboxylate], at human GPR119, it took 39.2 nM to reach a half-maximal effect (EC50).
In the case of `CC(C)(C)OC(=O)N1CCC(c2ccc(COc3ccc(S(N)(=O)=O)cc3)nc2)CC1` [Example 21, tert-Butyl 4-[2-(4-sulfamoylphenoxymethyl)pyridin-5-yl]piperidine-1-carboxylate], the EC50 on human GPR119 is 59.3 nM.
